Results on nine compounds are retold here after patent publication US5091311A, “The production of KSB-1939 macrolides using STR eptomyces hygroscopicus” (Kumiai Chemical Industry Co., Ltd., priority 1987, dated 1992).

Converted amounts (≈) assume the structure as drawn. Bounds are passed on as bounds.

In series [1] the test system is Twospotted Spider Mite. The experiment in a line: Test 2 LC50 against twospotted spider mite. It counts as in vivo, Teranychus urticae Koch. As to conditions: 48 h; for LC50: Tetranychus urticae, following procedure of Test 1. An excerpt: (§1) Each of polyethylene-made cups having a diameter of 55 mm and filled with water was covered with a lid through which a hole having a diameter of 10 mm was formed centrally. Absorbent cotton was suspended through the hole of the lid so as to absorb water. A sheet of filter paper was placed on the lid. Two bean leaf disks were place don the filter paper so that the disks were always supplied with water. Using a writing brush, adult female two spotted spider mites were inoculated at a rate of 10 mites per leaf disk. Twenty-four hours later, abnormal mites were removed, and wettable powders which had been prepared in accordance with the procedures of Preparation Examples 4-6 respectively were separately diluted to a predetermined concentration and sprayed to apply 2 mg/cm^2 of the respective agrochemical solutions. The test was conducted dually. Two days after the treatment with the agrochmical solutions, it was determined through a stereoscopic microscope whether the mites were alive or dead. The corrected mite mortality was calculated in accordance with the following equation. [formula]
(§2) Following the procedure of Test 1, tests were conducted with respect to Kanzawa spider mite and twospotted spider mite so that their LC50 values were determined. Milbemycin was used as a control.

A further series concerns Kanzawa spider mite. The experiment in a line: Test 2 LC50 against Kanzawa spider mite. The class given is in vivo, Tetranychus kanzawai Kishida. As to conditions: 48 h; for LC50: Tetranychus kanzawai, following procedure of Test 1.
Excerpt: as §1, §2

The subject of the next series is Asiatic Rice Borer. Description: Test 5 insecticidal test against Asiatic rice borer. The class given is in vivo, Chilo suppressalis Walker. The settings on record: Chilo suppressalis, 120 h, 3rd-instar larvae, 5 days, 25° C. The protocol:
(§3) Test 5 (Insecticidal Test against Asiatic Rice Borer) Wettable powders which had been prepared following the procedures of Preparation Examples 4-6 respectively were diluted with water to a predetermined concentration. Sprouted unhulled rice seeds were dipped in the resultant solutions and then dried in the air. They were placed separately in polyethylene-made cups having a diameter of 55 mm. Ten 3rd-instar larvae of asiatic rice borer were placed in each cup. The larvae were reared for 5 days in a constant-temperature chamber of 25° C. The test was conducted dually. The numbers of dead larvae were counted after the rearing, whereby mortality values of asiatic rice borer were calculated.

The nature of another series: Solubility. The class given is physicochemical. The settings on record: for Solubility in organic solvents: methanol, acetone, ethyl acetate, chloroform and hexane.
The subject of series [2] is microfilariae of Dirofilaria immitis. Description: microbe, parasite or virus in culture. The settings on record: 240 h, read-out: LD50.
In series [3] the test system is Twospotted Spider Mite. Description: Test 1 miticidal test against adult female twospotted spider mite. The class given is in vivo, Teranychus urticae Koch. The settings on record: Tetranychus urticae, 48 h, 2 days after treatment, read-out: Corrected mite mortality.
Excerpt: Test 1 (Miticidal Test against Adult Female Twospotted Spider Mite)
as §1

A short description of series [4]: Distinction of basic, acidic or neutral. It counts as physicochemical.
A further series deals with Toxocara canis. Description: Test 8 test against dog nematodes (Toxocara canis). The class given is in vivo, Toxocara canis (in dogs). The settings on record: dogs, once. The protocol:
(§4) Test 8 (Test against Dog Nematodes) A test was conducted using dogs which had been infected naturally with Ancylostoma caninum or Toxocara canis. Namely, using 8 hybrid dogs of 2 months old, KSB-1939H2 according to this invention was administered subcutaneously at a dosage of 0.1 mg/kg-body weight or orally at a dosage of 0.5 mg/kg-body weight. Administration was effected only once. Evaluation was conducted by comparing the number of eggs contained in feces excreted from each dog before the treatment with that of eggs contained in feces excreted from the dog after the treatment.

For the next series, the system named is Toxocara cati. The experiment in a line: Test 9 test against cat nematode. It counts as in vivo, Toxocara cati (in cats). The settings on record: cats. The protocol: Test 9 (Test against Cat Nematode) A test was conducted using cats which had been infected naturally with Toxocara cati. Namely, 4 hybrid cats infected with the nematode were administered with KSB-1939H2 of this invention at a dosage of 0.05 mg/kg-body weight in the case of subcutaneous administration or at a dosage of 0.1 mg/kg-body weight in the case of oral administration. Evaluation was conducted by comparing the number of eggs contained in feces excreted from each cat before the treatment with that of eggs contained in feces excreted from the cat after the treatment.

The next series concerns Brown Rice Planthopper. Description: Test 3 insecticidal test against brown rice planthopper. The class given is in vivo, Nilaparvata lugens Stal. As to conditions: 120 h, larvae, 5 days, 25° C. The protocol: Test 3 (Insecticidal Test against Brown Rice Planthopper) Wettable powders which had been prepared following the procedures of Preparation Examples 4-6 respectively were diluted with water to a predetermined concentration. Rice stems and leaves were dipped in the resultant solutions and then dried in the air. They were placed in test tubes. Ten brown rice planthopper larvae were placed in each test tube. The test tubes were plugged with absorbent cotton and the larvae were reared for 5 days in a constant-temperature chamber of 25° C. The test was conducted dually. The numbers of larvae were counted after the rearing, whereby mortality values of brown rice planthopper were calculated.

The subject of another series is Ancylostoma caninum. The experiment in a line: Test 8 test against dog nematodes (Ancylostoma caninum). The class given is in vivo, Ancylostoma caninum (in dogs). The settings on record: dogs, once. The protocol:
as §4

Series [5] is described as follows: Test 11 acute toxicity test (oral), mouse. The arrangement: species or system mouse (B6 C3 F1). As to conditions: in vivo, male. An excerpt: (§5) Test 11 (Acute Toxicity Test)
(§6) The acute toxicity (oral) of one of the compounds of this invention was investigated using rats (male and female, F344, 7 weeks old) and mice (male and female, B6 C3 F1, 7 weeks old).

A short description of series [6]: Test 11 acute toxicity test (oral), rat. Details: species or system rat (F344). As to conditions: in vivo, male.
Excerpt: as §5, §6

A further series relates to Haemonchus concurtus. Description: Test 10 test against sheep nematode. The class given is in vivo, Haemonchus concurtus (in sheep). The settings on record: oral drench into rumen, once. The protocol:
Test 10 (Test against Sheep Nematode) A test was conducted using sheep which had been infected with Haemonchus concurtus. Namely, KSB-1939H4 of this invention was formulated into oral drenches. Four sheep which had been infected artificially with Haemonchus concurtus were administered with the compound by injecting the oral drenches into their rumens respectively. They were treated only once by a single dosage of 0.5 mg/kg-body weight or 1.0 mg/kg-body weight. Evaluation was conducted by comparing the number of eggs contained in feces excreted from each sheep before the treatment with that of eggs contained in feces excreted from the sheep after the treatment.

For another series, the system named is Diamondback Moth. The experiment in a line: Test 4 insecticidal test against diamondback moth. It counts as in vivo. The settings on record: Plutella xylostella, 120 h, 3rd-instar larvae, 5 days, 25° C. The protocol: Test 4 (Insecticidal Test against Diamondback Moth)
as §3, with “Wettable” for “Test 5 (Insecticidal Test against Asiatic Rice Borer) Wettable”, “Cabbage leaves” for “Sprouted unhulled rice seeds”, “placed” for “placed separately”, “polyethylene-madecups” for “polyethylene-made cups”, “diamondback moth” for “asiatic rice borer”

For the compound Milbemycin [reference compound], the “LC50 Twospotted spider mite” value in the series with Twospotted Spider Mite [1] (twospotted spider mite, in vivo) was determined as 0.339 ppm. The “LC50 Kanzawa spider mite” value in the series with Kanzawa spider mite (kanzawa spider mite, in vivo) is 0.485 ppm.

In the case of `CC(C)=CC(=O)OCC1=CC2C(=O)OC3CC(CC=C(C)CC(C)C=CC=C4COC(C1O)C42O)OC1(CCC(C)C(C)O1)C3` (stereo not shown) [KSB-1939H2], the results for the LC50 (in the series on Twospotted Spider Mite [1]; in series [2]; in the series on Kanzawa spider mite) were 0.0249 µg/mL (≈ 0.0397 µM), 3.4 µg/mL (≈ 5.42 µM) and 0.0465 µg/mL (≈ 0.0742 µM), respectively. Besides, the mortality at 0.2 ppm in the series on Asiatic Rice Borer amounted to 90%; in the series on Twospotted Spider Mite [3], 100%. In addition, the mortality at 1 ppm in the series with Asiatic Rice Borer was 100%; with Twospotted Spider Mite [3] it was 100%; in the series on Brown Rice Planthopper it was 95%. For the same compound, the “Solubility in organic solvents” value in “Solubility” is recorded as “Soluble”. Moreover, the Solubility in water entry in “Solubility” is reported as “Insoluble”. The mortality at 0.004 ppm with Twospotted Spider Mite [3] (0.004 ppm) turned out to be 70.1%. Also, the “Distinction of basic, acidic or neutral” value in series [4] is on record as “Neutral”. Further, the “activities (eggs in feces before and after treatment)” value (“activities” for short) in the series on Toxocara canis (oral 0.5 mg/kg), in the series with Toxocara canis (subcutaneous 0.1 mg/kg), with Toxocara cati (oral 0.1 mg/kg), in the series with Toxocara cati (subcutaneous 0.05 mg/kg), in the series on Ancylostoma caninum (oral 0.5 mg/kg) and in the series on Ancylostoma caninum (subcutaneous 0.1 mg/kg) was 100% in each case. This compound displayed a mortality at 5 ppm with Brown Rice Planthopper of 100%. Also, the LD50 in [5] and in series [6] was above 5000 mg/kg in each case.

Take `CCC(C)=CC(=O)OCC1=CC2C(=O)OC3CC(CC=C(C)CC(C)C=CC=C4COC(C1O)C42O)OC1(CCC(C)C(C)O1)C3` (stereo not shown) [KSB-1939H4]: the “activities” value in the series on Haemonchus concurtus (0.5 mg/kg) is reported as 80-90%. Further, in the series with Haemonchus concurtus (1.0 mg/kg), the “activities” value is 100%. In the series with Asiatic Rice Borer, this compound yielded a mortality at 0.2 ppm of 90% and a mortality at 1 ppm of 100%. Moreover, in “Solubility”, the “Solubility in organic solvents” value is on record as “Soluble” and the Solubility in water result is on record as “Insoluble”. Moreover, the LC50 in [2] amounted to 3.3 µg/mL (≈ 5.15 µM). Besides, in the series with Twospotted Spider Mite [3], the mortality at 0.04 ppm was determined as 94.2%, the mortality at 0.2 ppm came to 100% and the mortality at 1 ppm turned out to be 100%. Besides, in [4], the “Distinction of basic, acidic or neutral” value was “Neutral”. In the series with Brown Rice Planthopper, the mortality at 1 ppm was determined as 65% and the mortality at 5 ppm was 100%.

On to `CCC1OC2(CCC1C)CC1CC(CC=C(C)CC(C)C=CC=C3COC4C(O)C(COC(=O)C=C(C)C)=CC(C(=O)O1)C34O)O2` (stereo not shown) [KSB-1939S5], for which the LC50 with Twospotted Spider Mite [1] amounted to 0.0339 µg/mL (≈ 0.0529 µM). In “Solubility”, the “Solubility in organic solvents” value is “Soluble” and the Solubility in water result is “Insoluble”. The LC50 in series [2] worked out at 3.5 µg/mL (≈ 5.46 µM). Moreover, in the series on Twospotted Spider Mite [3], the mortality at 0.04 ppm worked out at 45.7%, the mortality at 0.2 ppm is 100% and the mortality at 1 ppm is 100%. The “Distinction of basic, acidic or neutral” value in series [4] is recorded as “Neutral”. This compound came in with an LC50 in the series on Kanzawa spider mite of 0.0643 µg/mL (≈ 0.1 µM). In the series on Brown Rice Planthopper, this compound came in with a mortality at 1 ppm of 85% and a mortality at 5 ppm of 100%. For the same compound, the LD50 in series [5] is above 5000 mg/kg.

With `CCCC(=O)OCC1=CC2C(=O)OC3CC(CC=C(C)CC(C)C=CC=C4COC(C1O)C42O)OC1(CCC(C)C(C)O1)C3` (stereo not drawn) [KSB-1939L3β], in “Solubility”, the “Solubility in organic solvents” value is reported as “Soluble” and the Solubility in water result is recorded as “Insoluble”. Further, the “Distinction of basic, acidic or neutral” value in series [4] is recorded as “Neutral”.

`CC1=CCC2CC(CC3(CCC(C)C(C)O3)O2)OC(=O)C2C=C(COC(=O)CC(C)C)C(O)C3OCC(=CC=CC(C)C1)C23O` (stereo not shown) [KSB-1939H3]: in “Solubility”, the “Solubility in organic solvents” value was “Soluble” and the Solubility in water result is on record as “Insoluble”. Besides, the LC50 in [2] was determined as 1.5 µg/mL (≈ 2.39 µM). In the series on Twospotted Spider Mite [3], the mortality at 0.2 ppm was 100%, the mortality at 1 ppm was determined as 100% and the mortality at 5 ppm stood at 100%. Further, the “Distinction of basic, acidic or neutral” value in series [4] is “Neutral”. In the series on Brown Rice Planthopper, the mortality at 5 ppm came out at 65% and the mortality at 25 ppm was 100%. Further, in series [5], the LD50 was above 5000 mg/kg. In the series with Diamondback Moth, the mortality at 25 ppm was 100%.

Turning to `CC1=CCC2CC(CC3(CCC(C)C(C)O3)O2)OC(=O)C2C=C(COC(=O)C(C)C)C(O)C3OCC(=CC=CC(C)C1)C23O` (stereo not drawn) [KSB-1939L3α], in the series “Solubility”, the “Solubility in organic solvents” value is reported as “Soluble” and the Solubility in water result is reported as “Insoluble”. In addition, the “Distinction of basic, acidic or neutral” value in series [4] is listed as “Neutral”.

As to `CC1=C[C@H]2C(=O)O[C@H]3C[C@@H](C/C=C(\C)C[C@@H](C)/C=C/C=C4\CO[C@H]([C@@H]1O)[C@@]42O)O[C@@]1(CC[C@H](C)[C@@H](C(C)C)O1)C3` [Milbemycin D, reference compound], the LC50 in [2] came to 7.5 µg/mL (≈ 13.5 µM).

Regarding `CC1=CCC2CC(CC3(CCC(C)C(C)O3)O2)OC(=O)C2C=C(COC(=O)CCC(C)C)C(O)C3OCC(=CC=CC(C)C1)C23O` (stereo not shown) [KSB-1939H5], in the series with Asiatic Rice Borer, the mortality at 0.2 ppm amounted to 90% and the mortality at 1 ppm worked out at 100%. Further, in “Solubility”, the “Solubility in organic solvents” value was “Soluble” and the Solubility in water entry is reported as “Insoluble”. The LC50 in series [2] was 1.6 µg/mL (≈ 2.49 µM). In addition, in the series with Twospotted Spider Mite [3], the mortality at 1 ppm turned out to be 100% and the mortality at 5 ppm was found to be 100%. For the same compound, the “Distinction of basic, acidic or neutral” value in series [4] is listed as “Neutral”. In addition, in the series with Brown Rice Planthopper, the mortality at 25 ppm was 95%. The compound further registered a mortality at 25 ppm in the series with Diamondback Moth of 100%.

As usually defined, the mortality is the percentage killed. For orientation: LD50 means the dose expected to kill half of the subjects tested.
